The values below come from patent US20110160228A1, “DIHYDRO-ISO-CA-4 AND ANALOGUES: POTENT CYTOTOXICS, INHIBITORS OF TUBULIN POLYMERIZATION” (CENTRE NATIONAL DE LA RECHERCHE SCIENRIFIQUE (CNRS), priority 2008, published 2011).

The target of data set [1] is T1, tubulin (Sus scrofa, UniProt P02550+P02554).
T1 construct: from porcine brain in which it forms 20 to 25% of soluble proteins; from tissue; host or cells: porcine brain
In words: Inhibition of tubulin polymerization followed by turbidimetry. The data set is classed as biochemical, porcine. Conditions: for IC50: tubulin from porcine brain, turbidimetry at 350 nm; for Inhibiting activity of tubulin polymerisation, in words: compared with CA-4 or between the enantiomers. On the procedure: These tests were conducted on tubulin purified using the Shelanski method (Shelanski, M. C.; Gaskin, F.; Cantor, C. R. Proc. Natl. Acad. Sci. USA, 1973, 70, 765-768) from porcine brain in which it forms 20 to 25% of soluble proteins. The purification method is based on temperature-dependent assembly-disassembly cycles. Polymerisation of tubulin was followed by turbidimetry using the Gaskin method (Gaskin, F.; Cantor, C. R.; Shelanski, M. L.; J. Bio. Mol., 1974, 89, 737) at a wavelength of 350 nm. The different samples were dissolved in DMSO and incubated 10 minutes at 37° C. then 5 minutes at 0° C.
The compound CA-4 and DMSO were used as reference.

Data set [2] has as its system HCT116. The data set can be described thus: In vitro cytotoxicity, cell viability with CellTiter-Blue. In kind it is cell-based. The conditions noted are these: Homo sapiens, HCT-116, 72 h. On the procedure:
(§1) The biological activity of the compounds of the invention was studied in vitro on 7 human cancer cell lines of different tissular origin (HCT116: coloreactal carcinoma; K562: chronic myeloid leukaemia; B16-F10: melanoma; U87: glioblastoma; H1299: non-small cell lung cancer and MDA-MB 231 and MDA-MB 435: breast cancer). The cells chosen for this study were incubated at 37° C. in the presence of one of the compounds added to the culture medium at different concentrations. All the experiments conducted allowed determination of the extent of toxicity of the tested compound, effect thereof on the cell cycle process and capacity thereof to induce cell death by apoptosis.
(§2) The cancer cell lines were obtained from the American Type Culture Collection (Rockville, Md., USA) and were cultured following the supplier's recommendations.
The cells H1299, U87, MDA-MB231, MDA-MB435 and B16F10 were cultured in Dulbecco Minimal Essential Medium (DMEM) containing 4.5 g/l glucose, supplemented with 10% foetal calf serum and 1% glutamine. The K562 and HCT116 cells were cultured in RPMI 1640 medium containing 10% foetal calf serum and 1% glutamine. All the cell lines were held in culture at 37° C. in a humid atmosphere containing 5% CO2. Cell viability was evaluated using the reagent CellTiter-Blue™ (Promega, Wis., USA) paying heed to the manufacturer's instructions. The cells were seeded in 96-well culture plates to the proportion of 5000 cells per well in 50 μl culture medium. […] All the compounds were tested in triplicate for each defined concentration, and each experiment was repeated 3 times. After 72 hours of incubation, 20 μl resazurin were added to each well. After 2 hours of incubation, the emitted fluorescence was measured at 590 nm after excitation at 560 nm using a fluorescence reader of Victor type (Perkin-Elmer, USA).
For orientation: Resazurin is reduced to fluorescent resorufin, in cell work by metabolically active cells.

In data set [3] the test system is MDA-MB 231. The description is as above. In kind it is cell-based. Conditions: Homo sapiens, read-out: IC50 for different cell lines, M231. On the procedure: as §1, §2
The cells H1299, U87, MDA-MB231, MDA-MB435 and B16F10 were cultured in Dulbecco Minimal Essential Medium (DMEM) containing 4.5 g/l glucose, supplemented with 10% foetal calf serum and 1% glutamine. […] Cell viability was evaluated using the reagent CellTiter-Blue™ (Promega, Wis., USA) paying heed to the manufacturer's instructions. […] After 2 hours of incubation, the emitted fluorescence was measured at 590 nm after excitation at 560 nm using a fluorescence reader of Victor type (Perkin-Elmer, USA).

Data set [4] has as its system mouse P-388 leukemia cells. The conditions noted are these: cited from earlier work.
The subject of data set [5] is mouse colon adenocarcinoma 26. Conditions: cited from earlier work.
Data set [6] relates to HCT-15 cells. Conditions: read-out: IC50, cytotoxic effect; cited from earlier work.
For data set [7] the following is noted: cited from earlier work.
The subject of data set [8] is EAhy926. In words: Formation of vascular tubes on Matrigel (anti-vascular activity). In kind it is cell-based, human. The conditions noted are these: treatment time of 3 hours at 0.5 μM or 1 μM. How it is done:
The Matrigel™ is deposited in 96-well culture plates to the proportion of 70 μl/well and left to incubate at 37° C. for 45 minutes to allow polymerization thereof. […] After 3 hours of incubation at 37° C., the cells were observed and photographed using an optical microscope of TE2000 type (Nikon, France) equipped with a camera (FIG. 3).
In parallel, 15,000 EAhy926 cells in suspension in 150 μl of culture medium were seeded in each of the wells containing Matrigel™. […] The effect of the product was observed and photographed after 3 hours of incubation using an optical microscope (FIG. 4).

Setting [9] is: 72 hours of incubation, read-out: IC50 for different cell lines, HCT116.

Like-named read-outs stand apart in the source and are kept apart here.

T1 sequence (P02554 whole entry): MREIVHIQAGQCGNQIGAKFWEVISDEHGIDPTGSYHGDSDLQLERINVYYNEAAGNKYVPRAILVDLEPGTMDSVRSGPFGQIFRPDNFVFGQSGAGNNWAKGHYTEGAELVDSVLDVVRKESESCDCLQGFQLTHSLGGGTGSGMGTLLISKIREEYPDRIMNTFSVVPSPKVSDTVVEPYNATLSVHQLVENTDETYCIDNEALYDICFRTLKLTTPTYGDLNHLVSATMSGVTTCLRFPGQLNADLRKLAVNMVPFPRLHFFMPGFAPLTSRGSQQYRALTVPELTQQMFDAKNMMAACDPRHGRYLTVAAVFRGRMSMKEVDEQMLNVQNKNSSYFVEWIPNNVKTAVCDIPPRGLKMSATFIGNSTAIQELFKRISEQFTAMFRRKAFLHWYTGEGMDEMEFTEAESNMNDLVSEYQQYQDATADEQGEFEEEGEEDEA
T1 sequence (P02550 whole entry): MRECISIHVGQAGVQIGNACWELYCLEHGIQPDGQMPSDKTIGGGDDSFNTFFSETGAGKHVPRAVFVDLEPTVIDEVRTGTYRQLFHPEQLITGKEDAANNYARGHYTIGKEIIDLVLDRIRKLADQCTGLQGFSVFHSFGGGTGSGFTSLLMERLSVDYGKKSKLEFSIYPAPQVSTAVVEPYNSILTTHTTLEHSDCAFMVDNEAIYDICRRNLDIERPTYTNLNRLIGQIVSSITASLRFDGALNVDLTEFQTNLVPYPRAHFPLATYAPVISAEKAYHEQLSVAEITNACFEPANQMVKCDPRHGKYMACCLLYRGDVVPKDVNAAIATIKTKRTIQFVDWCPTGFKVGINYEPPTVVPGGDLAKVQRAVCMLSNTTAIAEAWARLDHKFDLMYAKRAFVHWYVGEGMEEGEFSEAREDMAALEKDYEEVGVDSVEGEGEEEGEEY

The IC50 is the concentration at which inhibition is half-maximal. For `COc1cc(OC)cc(C(C)c2ccc(OC)c(O)c2)c1` (centres unmarked) [Compound I-18], the IC50 in data set [1] was 11 µM. With `COc1ccc(C(C)c2cc(OC)c(OC)c(OC)c2)cc1OC(=O)CN(C)C` (centres unmarked) [Compound I-14], the IC50 came to 0.05 µM in data set [2] (72 hours of incubation, in DMSO, read-out: IC50 for different cell lines, HCT116); 0.09 µM in data set [2] (72 hours of incubation, in water, read-out: IC50 for different cell lines, HCT116); 0.05 µM in data set [3] (MDA-MB-231, 72 hours of incubation, in DMSO). Consider `COc1ccc(C(c2cc(OC)c(OC)c(OC)c2)C(F)F)cc1O` (centres unmarked) [Compound I-20], for which the IC50 in data set [2] (setting [9]) worked out at 0.03 µM. On to `COc1ccc(C=Cc2cc(OC)c(OC)c(OC)c2)cc1O` (single isomer, unassigned) [E isomer of CA-4], for which the “Cytotoxic activity, times lower than the natural Z isomer” value in data set [4] was “approximately 60 times”.

Turning to `COc1ccc(C(C)c2cc(OC)c(OC)c(OC)c2)cc1F` (centres unmarked) [Compound I-9], the IC50 came to 6 µM in data set [1] and 0.085 µM in data set [2] (setting [9]). In the case of `COc1ccc(C(CC#N)c2cc(OC)c(OC)c(OC)c2)cc1O` (centres unmarked) [Compound I-19], the IC50 in data set [2] (setting [9]) was found to be 0.08 µM.

With `COc1ccc(/C=C\c2cc(OC)c(OC)c(OC)c2)cc1O` [CA-4, combretastatin A-4], the “Antitumor activity in vivo” value in data set [5] is “no antitumor activity is observed”. For the same compound, in data set [6], the IC50 was 0.0009 µM. Also, in data set [7], the Solubility in water entry is “low solubility in water”. Turning to `COc1cc(OC)cc(C(C)c2ccc(OC)c(N)c2)c1` (centres unmarked) [Compound I-38], half-maximal inhibition in data set [1] (IC50) was put at 11 µM. Consider `COc1ccc(C(C)c2cc(OC)c(OC)c(OC)c2)cc1O` (single isomer, unassigned) [Compound I-1a], for which, in data set [1], the “Inhibiting activity of tubulin polymerisation, in words” value is recorded as “the same capacity to inhibit tubulin polymerisation” and the IC50 is 5 to 6 µM.

`COc1ccc(C(C)c2cc(OC)c(OC)c(OC)c2)cc1OP(=O)(O)O` (centres unmarked) [Compound I-16]: the “Number of vascular tubes” value in data set [8] is reported as “major decrease in the number of vascular tubes”. Also, the IC50 in data set [2] (read-out: IC50 for different cell lines, HCT116, 72 hours of incubation, in DMSO) stood at 0.09 µM; in data set [2] (read-out: IC50 for different cell lines, HCT116, 72 hours of incubation, in water), 0.1 µM; in data set [3] (MDA-MB-231, 72 h) it was 0.05 µM. Regarding `COc1ccc(C(C)c2cc(OC)c(OC)c(OC)c2)cc1O` (centres unmarked) [Compound I-1], it took 3.2 µM to reach half-maximal inhibition in data set [1] (IC50). Turning to `COc1ccc(C(C)c2cc(OC)c(OC)c(OC)c2)cc1N` (centres unmarked) [Compound I-21], the IC50 in data set [2] (read-out: IC50 for different cell lines, HCT116, 72 hours of incubation) was found to be 0.06 µM. For `COc1ccc(C(C)c2cc(OC)c(OC)c(OC)c2)cc1O` (single isomer, unassigned) [Compound I-1b], in data set [1], the “Inhibiting activity of tubulin polymerisation, in words” value was “the same capacity to inhibit tubulin polymerisation” and the concentration for half-maximal inhibition (IC50) was 6.7 to 8 µM.
